Where a SMILES comes first, the peptide text is derived from it. Bridges are numbered along the chain shown (N, C = ends). [ ]: non-standard residue; d: D form. Pro(trans-4-F) = O=C(O)[C@@H]1C[C@@H](F)CN1; Pro(cis-4-F) = O=C(O)[C@@H]1C[C@H](F)CN1; Pro(4,4-F2) = O=C(O)[C@@H]1CC(F)(F)CN1; Hyp = O=C(O)[C@@H]1C[C@@H](O)CN1; Pen = CC(C)(S)[C@H](N)C(=O)O; Tle = CC(C)(C)[C@H](N)C(=O)O; dDab = NCC[C@@H](N)C(=O)O; Dab = NCC[C@H](N)C(=O)O; Abu = CC[C@H](N)C(=O)O
How the values were obtained:
Format in all cases: cell-based
[1] = tested on: human red blood cells (hRBC); details: red cells of human, 1 h, 200 μg/mL
Method: Lyophilized peptides were weighed on a Microbalance (Mettler MT5) and dissolved in sterile water to a final concentration of 1 mg/mL. Stock solutions were kept at +4° C., light protected. The peptides were tested for their hemolytic activity against human red blood cells (hRBC). Fresh hRBC were washed three times with phosphate buffered saline (PBS) and centrifuged for 5 min at 3000×g. Compounds (200 μg/mL) were incubated with 20% hRBC (v/v) for 1 h at 37° C. and shaking at 300 rpm. A value of 0% and 100% cell lyses, respectively, was determined by incubation of hRBC in the presence of PBS and 2.5% Triton X-100 in H2O, respectively. The samples were centrifuged, the supernatants were 8-fold diluted in PBS buffer and the optical densities (OD) were measured at 540 nm. The 100% lyses value (OD540H2O) gave an OD540 of approximately 0.5-1.0. Percent hemolysis was calculated as follows: (OD540peptide/OD540H2O)×100%.

[2] = tested on: Klebsiella pneumoniae SSI3010; details: SSI3010
Method: (§1) Lyophilized peptides were weighed on a Microbalance (Mettler MT5) and dissolved in sterile water to a final concentration of 1 mg/mL. Stock solutions were kept at +4° C., light protected.
(§2) The selective antimicrobial activities of the peptides were determined in 96-well plates (Greiner, polystyrene) by the standard CLSI broth microdilution method (Clinical and Laboratory Standards Institute. Methods for Dilution Antimicrobial Susceptibility Tests for Bacteria That Grow Aerobically; Approved Standard-Ninth Edition. CLSI document M07-A9 (ISBN 1-56238-783-9 [Print]; ISBN 1-56238-784-7 [Electronic]). Clinical and Laboratory Standards Institute, 950 West Valley Road, Suite 2500, Wayne, Pennsylvania 19087, USA, 2012) with slight modifications.
(§3) Colonies of the microorganisms were diluted in saline (0.85%, NaCl) and adjusted using a McFarland reader (bioMérieux SA, Marcy-l'Etoile, France) to 0.5 McFarland standard. Subsequently, the bacterial suspension was diluted in Mueller-Hinton II (MHII, cation adjusted) broth to give approximately 5×10^5 colony forming units (CFU/mL).
(§4) Inocula of the microorganisms were diluted into Mueller-Hinton II (MH, cation adjusted) broth and compared with a 0.5 McFarland standard to give appr. 10^6 colony forming units (CFU)/mL. Aliquots (90 μl) of inoculate were added to 10 μl of water+P-80 (Polysorbate 80, 0.002% final concentration) containing the peptide in serial two-fold dilutions at 10 fold final concentration. The following microorganisms were used to determine antibiotic selectivity of the peptides: Escherichia coli ATCC 25922, Escherichia coli MCR-1 Af 45 and Klebsiella pneumoniae SSI3010. Antimicrobial activities of the peptides were expressed as the minimal inhibitory concentration (MIC) in μg/mL at which no visible growth was observed after 18-20 hours of incubation at 35° C.

[3] = tested on: Escherichia coli ATCC 25922; details: ATCC 25922
Method: as §1, §2, §3, §4

[4] = tested on: Escherichia coli MCR-1 Af 45; details: MCR-1 Af 45
Method: as §1, §2, §3, §4

| SMILES | Hemolysis at 0.2 g/L [1] [%] | Klebsiella pneumoniae SSI3010 MIC [2] [µg/mL] | Escherichia coli ATCC 25922 MIC [3] [µg/mL] | Escherichia coli MCR-1 Af45 MIC [4] [µg/mL] |
| --- | --- | --- | --- | --- |
| CC[C@H](C)[C@H](NC(=O)[C@@H]1C[C@@H](O)CN1C(=O)[C@@H](N)C(C)C)C(=O)N[C@@H]1C(=O)N[C@@H](Cc2ccc(O)cc2)C(=O)N[C@@H](CO)C(=O)N[C@@H](CC(N)=O)C(=O)N[C@@H](CCCNC(=N)N)C(=O)N[C@@H](CCN)C(=O)N[C@@H]([C@@H](C)O)C(=O)N[C@H](CCN)C(=O)N[C@@H](CCCCN)C(=O)N[C@@H](CCN)C(=O)N[C@@H](CCN)C(=O)N[C@H](C(=O)N[C@@H](Cc2ccc(O)cc2)C(=O)O)CSSC1(C)C [Example 1, Val-Hyp-Ile-Pen-Tyr-Ser-Asn-Arg-Dab-Thr-^DDab-Lys-Dab-Dab-Cys-Tyr] (H-V[Hyp]I[Pen]YSNR[Dab]T[dDab]K[Dab][Dab]CY-OH; disulfide 4-15) | <1 | 0.25 | 0.125 | 0.03125 |
| CC[C@H](N)C(=O)N1C[C@H](O)C[C@H]1C(=O)N[C@H](C(=O)N[C@@H]1C(=O)N[C@@H](Cc2ccc(O)cc2)C(=O)N[C@@H](CO)C(=O)N[C@@H](CC(N)=O)C(=O)N[C@@H](CCCNC(=N)N)C(=O)N[C@@H](CCN)C(=O)N[C@@H]([C@@H](C)O)C(=O)N[C@H](CCN)C(=O)N[C@@H](CCCCN)C(=O)N[C@@H](CCN)C(=O)N[C@@H](CCN)C(=O)N[C@H](C(=O)N[C@@H](Cc2ccc(O)cc2)C(=O)O)CSSC1(C)C)[C@@H](C)CC [Example 2, Abu-Hyp-Ile-Pen-Tyr-Ser-Asn-Arg-Dab-Thr-^DDab-Lys-Dab-Dab-Cys-Tyr] (H-[Abu][Hyp]I[Pen]YSNR[Dab]T[dDab]K[Dab][Dab]CY-OH; disulfide 4-15) | <1 | 0.25 | 0.25 | 0.125 |
| CC[C@H](C)[C@H](NC(=O)[C@@H]1C[C@@H](O)CN1C(=O)[C@@H](N)C(C)(C)C)C(=O)N[C@@H]1C(=O)N[C@@H](Cc2ccc(O)cc2)C(=O)N[C@@H](CO)C(=O)N[C@@H](CC(N)=O)C(=O)N[C@@H](CCCNC(=N)N)C(=O)N[C@@H](CCN)C(=O)N[C@@H]([C@@H](C)O)C(=O)N[C@H](CCN)C(=O)N[C@@H](CCCCN)C(=O)N[C@@H](CCN)C(=O)N[C@@H](CCN)C(=O)N[C@H](C(=O)N[C@@H](Cc2ccc(O)cc2)C(=O)O)CSSC1(C)C [Example 3, tBuGly-Hyp-Ile-Pen-Tyr-Ser-Asn-Arg-Dab-Thr-^DDab-Lys-Dab-Dab-Cys-Tyr] (H-[Tle][Hyp]I[Pen]YSNR[Dab]T[dDab]K[Dab][Dab]CY-OH; disulfide 4-15) | <1 | 0.25 | 0.125 | 0.125 |
| CC[C@H](C)[C@H](NC(=O)[C@@H]1CCCN1C(=O)[C@@H](N)C(C)C)C(=O)N[C@@H]1C(=O)N[C@@H](Cc2ccc(O)cc2)C(=O)N[C@@H](CO)C(=O)N[C@@H](CC(N)=O)C(=O)N[C@@H](CCCNC(=N)N)C(=O)N[C@@H](CCN)C(=O)N[C@@H]([C@@H](C)O)C(=O)N[C@H](CCN)C(=O)N[C@@H](CCCCN)C(=O)N[C@@H](CCN)C(=O)N[C@@H](CCN)C(=O)N[C@H](C(=O)N[C@@H](Cc2ccc(O)cc2)C(=O)O)CSSC1(C)C [Example 4, Val-Pro-Ile-Pen-Tyr-Ser-Asn-Arg-Dab-Thr-^DDab-Lys-Dab-Dab-Cys-Tyr] (H-VPI[Pen]YSNR[Dab]T[dDab]K[Dab][Dab]CY-OH; disulfide 4-15) | <1 | 0.125 | 0.0625 | 0.0625 |
| CC[C@H](C)[C@H](NC(=O)[C@@H]1CCCN1C(=O)[C@@H](N)C(C)C)C(=O)N[C@@H]1C(=O)N[C@@H](Cc2ccc(O)cc2)C(=O)N[C@@H]([C@@H](C)O)C(=O)N[C@@H](CC(N)=O)C(=O)N[C@@H](CCCNC(=N)N)C(=O)N[C@@H](CCN)C(=O)N[C@@H]([C@@H](C)O)C(=O)N[C@H](CCN)C(=O)N[C@@H](CCCCN)C(=O)N[C@@H](CCN)C(=O)N[C@@H](CCN)C(=O)N[C@H](C(=O)N[C@@H](Cc2ccc(O)cc2)C(=O)O)CSSC1(C)C [Example 5, Val-Pro-Ile-Pen-Tyr-Thr-Asn-Arg-Dab-Thr-^DDab-Lys-Dab-Dab-Cys-Tyr] (H-VPI[Pen]YTNR[Dab]T[dDab]K[Dab][Dab]CY-OH; disulfide 4-15) | <1 | 0.25 | 0.125 | 0.0625 |
| CC[C@H](C)[C@H](NC(=O)[C@@H]1C[C@@H](OC)CN1C(=O)[C@@H](N)C(C)C)C(=O)N[C@@H]1C(=O)N[C@@H](Cc2ccc(O)cc2)C(=O)N[C@@H]([C@@H](C)O)C(=O)N[C@@H](CC(N)=O)C(=O)N[C@@H](CCCNC(=N)N)C(=O)N[C@@H](CCN)C(=O)N[C@@H]([C@@H](C)O)C(=O)N[C@H](CCN)C(=O)N[C@@H](CCCCN)C(=O)N[C@@H](CCN)C(=O)N[C@@H](CCN)C(=O)N[C@H](C(=O)N[C@@H](Cc2ccc(O)cc2)C(=O)O)CSSC1(C)C [Example 6, Val-Pro((4R)OMe)-Ile-Pen-Tyr-Thr-Asn-Arg-Dab-Thr-^DDab-Lys-Dab-Dab-Cys-Tyr] (H-V[Hyp](Me)I[Pen]YTNR[Dab]T[dDab]K[Dab][Dab]CY-OH; disulfide 4-15) | <1 | 0.25 | 0.125 | 0.125 |
| CC[C@H](C)[C@H](NC(=O)[C@@H]1C[C@H](F)CN1C(=O)[C@@H](N)C(C)C)C(=O)N[C@@H]1C(=O)N[C@@H](Cc2ccc(O)cc2)C(=O)N[C@@H]([C@@H](C)O)C(=O)N[C@@H](CC(N)=O)C(=O)N[C@@H](CCCNC(=N)N)C(=O)N[C@@H](CCN)C(=O)N[C@@H]([C@@H](C)O)C(=O)N[C@H](CCN)C(=O)N[C@@H](CCCCN)C(=O)N[C@@H](CCN)C(=O)N[C@@H](CCN)C(=O)N[C@H](C(=O)N[C@@H](Cc2ccc(O)cc2)C(=O)O)CSSC1(C)C [Example 7, Val-Pro((4S)F)-Ile-Pen-Tyr-Thr-Asn-Arg-Dab-Thr-^DDab-Lys-Dab-Dab-Cys-Tyr] (H-V[Pro(cis-4-F)]I[Pen]YTNR[Dab]T[dDab]K[Dab][Dab]CY-OH; disulfide 4-15) | <1 | 0.25 | 0.125 | 0.125 |
| CC[C@H](C)[C@H](NC(=O)[C@@H]1C[C@@H](F)CN1C(=O)[C@@H](N)C(C)C)C(=O)N[C@@H]1C(=O)N[C@@H](Cc2ccc(O)cc2)C(=O)N[C@@H]([C@@H](C)O)C(=O)N[C@@H](CC(N)=O)C(=O)N[C@@H](CCCNC(=N)N)C(=O)N[C@@H](CCN)C(=O)N[C@@H]([C@@H](C)O)C(=O)N[C@H](CCN)C(=O)N[C@@H](CCCCN)C(=O)N[C@@H](CCN)C(=O)N[C@@H](CCN)C(=O)N[C@H](C(=O)N[C@@H](Cc2ccc(O)cc2)C(=O)O)CSSC1(C)C [Example 8, Val-Pro((4R)F)-Ile-Pen-Tyr-Thr-Asn-Arg-Dab-Thr-^DDab-Lys-Dab-Dab-Cys-Tyr] (H-V[Pro(trans-4-F)]I[Pen]YTNR[Dab]T[dDab]K[Dab][Dab]CY-OH; disulfide 4-15) | <1 | 0.25 | 0.125 | 0.0625 |
| CC[C@H](C)[C@H](NC(=O)[C@@H]1CC(F)(F)CN1C(=O)[C@@H](N)C(C)C)C(=O)N[C@@H]1C(=O)N[C@@H](Cc2ccc(O)cc2)C(=O)N[C@@H]([C@@H](C)O)C(=O)N[C@@H](CC(N)=O)C(=O)N[C@@H](CCCNC(=N)N)C(=O)N[C@@H](CCN)C(=O)N[C@@H]([C@@H](C)O)C(=O)N[C@H](CCN)C(=O)N[C@@H](CCCCN)C(=O)N[C@@H](CCN)C(=O)N[C@@H](CCN)C(=O)N[C@H](C(=O)N[C@@H](Cc2ccc(O)cc2)C(=O)O)CSSC1(C)C [Example 9, Val-Pro(4,4F2)-Ile-Pen-Tyr-Thr-Asn-Arg-Dab-Thr-^DDab-Lys-Dab-Dab-Cys-Tyr] (H-V[Pro(4,4-F2)]I[Pen]YTNR[Dab]T[dDab]K[Dab][Dab]CY-OH; disulfide 4-15) | <1 | 0.25 | 0.125 | 0.0625 |

Source: US20240336654A1, “ANTIMICROBIAL PEPTIDOMIMETICS” (SPEXIS AG, priority 2021, published 2024)
